Test results taken from patent US11369565B2, “Amino-pyrimidine skeletal muscle modulators” (Cytokinetics, Inc., priority 2010, dated 2022).

Tested on: rabbit skeletal myofibrils (approximately 90% fast fibers)
Test: Activation of fast skeletal myofibrils (PUMA coupled-enzyme ATPase assay at pCa25)
Format: biochemical
Conditions: concentration at which the compound increased the enzymatic activity by 40%; calcium at pCa25; PM12 buffer pH 6.8
Procedure: Preparation of fast skeletal myofibrils. Rabbit skeletal myofibrils were prepared based upon the method of Herrmann et al. (Biochem. 32(28):7255-7263(1993). Myofibrils were prepared from rabbit psoas muscle purchased from Pel-Freez Biologicals (Arkansas) within 2 days of ordering, stored on ice. Minced muscle was homogenized in 10 volumes of ice-cold “standard” buffer (50 mM Tris, pH 7.4, 0.1 M potassium acetate, 5 mM KCl, 2 mM DTT, 0.2 mM PMSF, 10 μM leupeptin, 5 μM pepstatin, and 0.5 mM sodium azide) containing 5 mM EDTA and 0.5% Triton X-100 using an Omni-Macro homogenizer. Myofibrils were recovered by low speed centrifugation (3000 rpm for 10 minutes) and washed 2 times in the Triton X-100 containing buffer to ensure removal of cellular membrane. Following the Triton washes, myofibrils were washed 3 times in “standard” buffer containing 2 mM magnesium acetate. A final wash in assay buffer (12 mM PIPES, pH 6.8, 60 mM KCl, 1 mM DTT) was performed and brought to 10% sucrose for flash freezing in liquid nitrogen and storage at −80° C.
Activation of Fast Skeletal Myofibrils. Fast fiber activators were identified by measuring the enzymatic activity of muscle myofibril preparations using the proprietary PUMA™ (see, e.g., U.S. Pat. Nos. 6,410,254, 6,743,599, 7,202,051, and 7,378,254) assay system. Myofibril preparations consisted of rabbit skeletal muscle (approximately 90% fast fibers) that had been mechanically homogenized and washed with a detergent (triton X-100) to remove cellular membranes. This preparation retained all of the sarcomeric components in a native conformation and the enzymatic activity was still regulated by calcium. Compounds were tested using a myofibril suspension and a level of calcium sufficient to increase enzymatic activity of the myofibrils to 25% of their maximal rate (termed pCa25). Enzymatic activity was tracked via a pyruvate kinase and lactate dehydrogenase-coupled enzyme system. This assay regenerates myosin-produced ADP into ATP by oxidizing NADH, producing an absorbance change at 340 nm. The buffering system was 12 mM Pipes, 2 mM MgCl2, 1 mM DTT at pH 6.8 (PM12 buffer).

| SMILES | Mean AC1.4 |
| --- | --- |
| Fc1cccnc1[C@]1(CNc2ncccn2)C[C@@H](F)C1 [{[3-fluoro-1-(3-fluoro(2-pyridyl))cyclobutyl]methyl}pyrimidin-2-ylamine] | D (D=>20 uM) |
| CC(C)(Nc1ncc(-c2cn3c(C(=O)O)csc3n2)cn1)c1ncccc1Cl | B (B=1-10 uM) |
| CC(C)(Nc1ncc(-c2c[nH]c(=O)c(C(N)=O)c2)cn1)c1ncccc1Cl [5-(2-{[1-(3-chloro(2-pyridyl))-isopropyl]amino}pyrimidin-5-yl)-2-oxohydropyridine-3-carboxamide] | B (B=1-10 uM) |
| CNC(=O)c1cnc(NCC2(c3ncccc3F)CCC2)nc1 [[2-({[(3-fluoro(2-pyridyl))cyclobutyl]methyl}amino)pyrimidin-5-yl]-N-methylcarboxamide] | D (D=>20 uM) |
| CC(C)(Nc1ncc(C2N=NN=N2)cn1)c1ncccc1Cl [(5-(5H-1,2,3,4-tetraazol-5-yl)pyrimidin-2-yl)[1-(3-chloro(2-pyridyl))-isopropyl]amine] | D (D=>20 uM) |
| NC(=O)c1nc2cnc(NCC3(c4ncccc4F)CCC3)nc2s1 [5-({[(3-fluoro-2-pyridyl)cyclobutyl]methyl}amino)-1,3-thiazolo[5,4-d]pyrimidine-2-carboxamide] | C (C=10-20 uM) |
| N#Cc1cnc(NC2(c3ccc(F)cc3)CCC2)nc1 [2-{[(4-fluorophenyl)cyclobutyl]amino} pyrimidine-5-carbonitrile] | C (C=10-20 uM) |
| C[S+]([O-])c1ccccc1C(C)(C)Nc1ncc(-c2cccc(C(N)=O)c2)cn1 (centres unmarked) [3-(2-(2-(2-(methylsulfinyl)phenyl)propan-2-ylamino)pyrimidin-5-yl)benzamide] | D (D=>20 uM) |
| COc1nc(NC[C@]2(c3ncccc3F)C[C@@H](F)C2)ncc1-c1ccccc1 [{[3-fluoro-1-(3-fluoro(2-pyridyl))cyclobutyl]methyl)(4-methoxy-5-phenylpyrimidin-2-yl)amine] | B (B=1-10 uM) |
| CC(C)(C)Nc1ncc(-c2ccc3[nH]nc(N)c3c2)cn1 [[5-(3-amino(1H-indazol-5-yl))pyrimidin-2-yl]tert-butyl)amine] | B (B=1-10 uM) |
| CC(C)(C)OC(=O)NCc1cnc(-c2cnc(NCC3(c4ncccc4F)CCC3)nc2)s1 [(tert-butoxy)-N-({2-[2-({[(3-fluoro(2-pyridyl))cyclobutyl]methyl}amino)pyrimidin-5-yl](1,3-thiazol-5-yl)}methyl)carboxamide] | B (B=1-10 uM) |
| O=C(NC1CC(O)C1)c1cccc(-c2cnc(NC[C@]3(c4ncccc4F)C[C@H](F)C3)nc2)c1 (some centres unmarked) [{3-[2-(([3-fluoro-1-(3-fluoro(2-pyridyl))cyclobutyl]methyl}amino)pyrimidin-5-yl]phenyl}-N-(3-hydroxycyclobutyl)carboxamide] | B (B=1-10 uM) |
| CC(C)(Nc1ncc(Br)cn1)c1ccc(F)cc1 [(5-bromopyrimidin-2-yl)[1-(4-fluorophenyl)-isopropyl]amine] | C (C=10-20 uM) |
| Cc1cccnc1C(C)(C)Nc1ncc(-c2cc(C(N)=O)ccc2F)cn1 [4-fluoro-3-(2-{[1-methyl-1-(3-methyl(2-pyridyl))ethyl]amino}pyrimidin-5-yl)benzamide] | B (B=1-10 uM) |
| O=C(Nc1cccc(F)c1)c1cnc(NCC2(c3ncccc3F)CCC2)nc1 [[2-({[(3-fluoro(2-pyridyl))cyclobutyl]methyl}amino)pyrimidin-5-yl]-N-(3-fluorophenyl)carboxamide] | D (D=>20 uM) |
| Nc1cncc(-c2cnc(NC[C@]3(c4ncccc4F)C[C@H](F)C3)nc2)n1 [[5-(6-aminopyrazin-2-yl)pyrimidin-2-yl]{[3-fluoro-1-(3-fluoro(2-pyridyl))cyclobutyl]methyl}amine] | B (B=1-10 uM) |
| CC(C)(Nc1ncc(-c2csc(C(N)=O)n2)cn1)c1ncccc1Cl [4-(2-{[1-(3-chloro(2-pyridyl))-isopropyl]amino}pyrimidin-5-yl)-1,3-thiazole-2-carboxamide] | C (C=10-20 uM) |
| COc1cccnc1C(C)(C)Nc1ncc(-c2cc(C#N)ccc2F)cn1 [4-fluoro-3-(2-{[1-(3-methoxy(2-pyridyl))-isopropyl]amino}pyrimidin-5-yl)benzenecarbonitrile] | D (D=>20 uM) |

Next, values leading:

| Mean AC1.4 | SMILES |
| --- | --- |
| D (D=>20 uM) | Cc1nc(NC[C@]2(c3ncccc3F)C[C@H](F)C2)ncc1-c1ccc(C(N)=O)cc1 [4-[2-({[3-fluoro-1-(3-fluoro(2-pyridyl))cyclobutyl]methyl}amino)-4-methylpyrimidin-5-yl]benzamide] |
| A (A=<1 uM) | NC(=O)c1cc(-c2cnc(NC[C@]3(c4ncccc4F)C[C@H](F)C3)nc2)ccc1O [5-[2-({[3-fluoro-1-(3-fluoro(2-pyridyl))cyclobutyl]methyl)amino)pyrimidin-5-yl]-2-hydroxybenzamide] |
| B (B=1-10 uM) | O=C1NCc2cccc(-c3cnc(NC[C@]4(c5ncccc5F)C[C@H](F)C4)nc3)c21 [7-[2-({[3-fluoro-1-(3-fluoro(2-pyridyl))cyclobutyl]methyl}amino)pyrimidin-5-yl]isoindolin-1-one] |
| A (A=<1 uM) | NC(=O)c1ccc(F)c(-c2cnc(NCC3(c4ncccc4F)CC(F)C3)nc2)c1 (centres unmarked) [4-fluoro-3-[2-({[3-fluoro-1-(3-fluoro(2-pyridyl))cyclobutyl]methyl}amino)pyrimidin-5-yl]benzamide] |
| B (B=1-10 uM) | Nc1ncc(F)c(-c2cnc(NC[C@]3(c4ncccc4F)C[C@H](F)C3)nc2)n1 [[5-(2-amino-5-fluoropyrimidin-4-yl)pyrimidin-2-yl]{[3-fluoro-1-(3-fluoro(2-pyridyl))cyclobutyl]methyl}amine] |
| B (B=1-10 uM) | Nc1ncc(-c2cnc(NC[C@]3(c4ncccc4F)C[C@H](F)C3)nc2)[nH]c1=O [3-amino-6-[2-({[3-fluoro-1-(3-fluoro(2-pyridyl))cyclobutyl]methyl}amino)pyrimidin-5-yl] hydropyrazin-2-one] |
| B (B=1-10 uM) | NC(=O)c1ccc(C(N)=O)c(-c2cnc(NC[C@]3(c4ncccc4F)C[C@H](F)C3)nc2)c1 [2-[2-({[3-fluoro-1-(3-fluoro(2-pyridyl))cyclobutyl)]methyl}amino) pyrimidin-5-yl]benzene-1,4-dicarboxamide] |
| A (A=<1 uM) | NC(=O)c1ccn(-c2cnc(NC[C@]3(c4ncccc4F)C[C@H](F)C3)nc2)c1 [1-[2-({[3-fluoro-1-(3-fluoro(2-pyridyl))cyclobutyl]methyl}amino)pyrimidin-5-yl]pyrrole-3-carboxamide] |
| B (B=1-10 uM) | Oc1cnc(-c2cnc(NC[C@]3(c4ncccc4F)C[C@H](F)C3)nc2)c(F)c1 [5-fluoro-6-[2-(([3-fluoro-1-(3-fluoro(2-pyridyl))cyclobutyl]methyl}amino)pyrimidin-5-yl]pyridin-3-ol] |
| B (B=1-10 uM) | CNC(=O)c1cccc(-c2cnc(NC[C@]3(c4ncccc4F)C[C@H](F)C3)nc2)c1 [{3-[2-({[3-fluoro-1-(3-fluoro(2-pyridyl))cyclobutyl]methyl}amino)pyrimidin-5-yl]phenyl}-N-methylcarboxamide] |
| B (B=1-10 uM) | CNC(=O)c1ccnc(-c2cnc(NC[C@]3(c4ncccc4F)C[C@H](F)C3)nc2)n1 [{2-[2-({[3-fluoro-1-(3-fluoro(2-pyridyl))cyclobutyl]methyl}amino)pyrimidin-5-yl]pyrimidin-4-yl}-N-methylcarboxamide] |
